Measurements: patent US12220419B2, “BCL-2 inhibitors” (Newave Pharmaceutical Inc., priority 2018, dated 2025)
Where a name gives a salt, the structure may show the parent alone. Read-outs that look alike come from different tables or passages of the source.

Columns and labels:
BCL-2 = BCL-2 (Homo sapiens (Human), UniProt P10415); experiment: BCL-2 competition binding (fluorescence polarization) assay; conditions: read-out: BCL2 IC50
Experimental: Biological Example 1: BCL-2 Competition Binding (Fluorescence Polarization) Assay
The fluorescence-labeled 23 amino acid peptide BH3 was purchased from CalBiochem ([…]). […] This binding assay was performed in 96-well plate and with each assay contained 15 and 30 nM of labeled peptide and purified BCL-2 protein (purchased from R&D Systems, Inc). The assay buffer contained 20 mM Hepes (pH 7.0), 50 mM KCl, 5 mM MgCl2, 20 mM Na2MoO4, 0.1 mg/ml Bovine Gamma Globulin and 0.01% NP40. Compounds were diluted in DMSO and added to the final assay with concentration range from 20 μM to 2 nM. The polarization degree (mP) value was determined by BioTek Synergy II with background subtraction after 3 hours of incubation at room temperature. IC50 was calculated using Prism software with sigmoidal dose-response curve fitting. ABT-737 was used as reference compound. Such assays, carried out with a range of doses of test compounds, allowed the determination of an approximate IC50 value.

[1] = tested on: BCL-2-dependent acute lymphoblastic leukemia (ALL) cell line RS4;11; experiment: In vitro anti-proliferation assay (ATPlite luminescence) in RS4;11; assay type: cell-based; conditions: RS4;11 cells, about 72 hours, medium with 5% FBS or 10% normal human serum
Experimental: Cell antiproliferation was assayed by PerkinElmer ATPlite™ Luminescence Assay System. Briefly, the various test cancer cell lines were plated at a density of about 1×10^4 cells per well in Costar 96-well plates, and were incubated with different concentrations of compounds for about 72 hours in medium supplemented with 5% FBS or 10% normal human serum (NHS). One lyophilized substrate solution vial was then reconstituted by adding 5 mL of substrate buffer solution, and was agitated gently until the solution was homogeneous. About 50 μL of mammalian cell lysis solution was added to 100 μL of cell suspension per well of a microplate, and the plate was shaken for about five minutes in an orbital shaker at 700 rpm. This procedure was used to lyse the cells and to stabilize the ATP. Next, 50 μL substrate solution was added to the wells and microplate was shaken for five minutes in an orbital shaker at 700 rpm. Finally, the luminescence was measured by a PerkinElmer TopCount® Microplate Scintillation Counter. Such assays, carried out with a range of doses of test compounds, allowed the determination of the cellular anti-antiproliferative IC50 of the compounds of the present invention.

[2] = fluorescein-labeled BH3 peptide 15 nM, purified BCL-2 protein 30 nM, 3 hours incubation at room temperature

Chain of BCL-2 (P10415 whole entry): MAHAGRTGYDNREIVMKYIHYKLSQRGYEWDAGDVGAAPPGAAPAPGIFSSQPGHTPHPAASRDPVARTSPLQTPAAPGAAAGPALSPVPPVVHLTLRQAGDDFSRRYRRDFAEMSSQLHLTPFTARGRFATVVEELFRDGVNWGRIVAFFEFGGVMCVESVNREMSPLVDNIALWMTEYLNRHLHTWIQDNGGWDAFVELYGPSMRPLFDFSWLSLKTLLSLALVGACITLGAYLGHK

IC50 (BCL-2) [µM] | SMILES | IC50 (BCL-2; [2]) [µM] | IC50 [1] [µM]
 | Cc1ncsc1-c1ccc(CNC(=O)[C@@H]2C[C@@H](O)CN2C(=O)[C@@H](NC(=O)CCOCCOCCN2CCN(CCNc3ccc(S(=O)(=O)NC(=O)c4ccc(N5CCN(CC6=C(c7ccc(Cl)cc7)CC(C)(C)CC6)CC5)cc4N4CCCOc5nc6[nH]ccc6cc54)cc3[N+](=O)[O-])CC2)C(C)(C)C)cc1 [Example 56] | 0.0004 | 0.0637
 | Cc1ncsc1-c1ccc(CNC(=O)[C@@H]2C[C@@H](O)CN2C(=O)[C@@H](NC(=O)CCOCCN2CCN(CCNc3ccc(S(=O)(=O)NC(=O)c4ccc(N5CCN(CC6=C(c7ccc(Cl)cc7)CC(C)(C)CC6)CC5)cc4N4CCCOc5nc6[nH]ccc6cc54)cc3[N+](=O)[O-])CC2)C(C)(C)C)cc1 [Example 58] | 0.0003 | 0.102
 | Cc1ncsc1-c1ccc(CNC(=O)[C@@H]2C[C@@H](O)CN2C(=O)[C@@H](NC(=O)CCOCCOCCOCCOCCNc2ccc(S(=O)(=O)NC(=O)c3ccc(N4CCN(CC5=C(c6ccc(Cl)cc6)CC(C)(C)CC5)CC4)cc3N3CCCOc4nc5[nH]ccc5cc43)cc2[N+](=O)[O-])C(C)(C)C)cc1 [Example 57, (2S,4R)-1-[(2S)-2-[1-[(4-[[4-(4-[[2-(4-chlorophenyl)-4,4-dimethylcyclohex-1-en-1-yl]methyl]piperazin-1-yl)-2-[14-oxa-2,4,10-triazatricyclo[7.5.0.0^[3,7]]tetradeca-1(9),2,5,7-tetraen-10-yl]phenyl]formamidosulfonyl]-2-nitrophenyl)amino]-3,6,9,12-tetraoxapentadecan-15-amido]-3,3-dimethylbutanoyl]-4-hydroxy-N-[[4-(4-methyl-1,3-thiazol-5-yl)phenyl]methyl]pyrrolidine-2-carboxamide] | 0.0005 | 0.068
0.0006 | CC1(C)CCC(CN2CCN(c3ccc(C(=O)NS(=O)(=O)c4ccc(NCCN5CCN(CCOCCOCCNc6cccc7c6C(=O)N(C6CCC(=O)NC6=O)C7=O)CC5)c([N+](=O)[O-])c4)c(N4CCCOc5nc6[nH]ccc6cc54)c3)CC2)=C(c2ccc(Cl)cc2)C1 (stereo not drawn) [Example 50, 4-(4-[[2-(4-chlorophenyl)-4,4-dimethylcyclohex-1-en-1-yl]methyl]piperazin-1-yl)-N-(4-[[2-(4-[2-[2-(2-[[2-(2,6-dioxopiperidin-3-yl)-1,3-dioxoisoindol-4-yl]amino]ethoxy)ethoxy]ethyl]piperazin-1-yl)ethyl]amino]-3-nitrobenzenesulfonyl)-2-[14-oxa-2,4,10-triazatricyclo[7.5.0.0^[3,7]]tetradeca-1(9),2,5,7-tetraen-10-yl]benzamide] |  | 0.043
0.047 | CC1(C)CCC(CN2CCN(c3ccc(C(=O)NS(=O)(=O)c4ccc(NC[C@H]5COCCO5)c([N+](=O)[O-])c4)c(N4CCCOc5nc6[nH]ccc6cc54)c3)CC2)=C(c2ccc(O)cc2)C1 [Example 38, N-(4-[[(2S)-1,4-dioxan-2-ylmethyl]amino]-3-nitrobenzenesulfonyl)-4-(4-[[2-(4-hydroxyphenyl)-4,4-dimethylcyclohex-1-en-1-yl]methyl]piperazin-1-yl)-2-[14-oxa-2,4,10-triazatricyclo[7.5.0.0^[3,7]]tetradeca-1(9),2,5,7-tetraen-10-yl]benzamide] |  | 
 | CC1(C)CCC(CN2CCN(c3ccc(C(=O)NS(=O)(=O)c4ccc(NCCOCCOCCOCCOCCNc5cccc6c5C(=O)N(C5CCC(=O)NC5=O)C6=O)c([N+](=O)[O-])c4)c(N4CCCOc5nc6[nH]ccc6cc54)c3)CC2)=C(c2ccc(Cl)cc2)C1 (stereo not drawn) [Example 51, 4-(4-[[2-(4-chlorophenyl)-4,4-dimethylcyclohex-1-en-1-yl]methyl]piperazin-1-yl)-N-[4-(15-[[2-(2,6-dioxopiperidin-3-yl)-1,3-dioxoisoindol-4-yl]amino]-4,7,10,13-tetraoxa-1-azapentadecan-1-yl)-3-nitrobenzenesulfonyl]-2-[14-oxa-2,4,10-triazatricyclo[7.5.0.0^[3,7]]tetradeca-1(9),2,5,7-tetraen-10-yl]benzamide] | 0.0009 | 0.062
 | CC1(C)CCC(c2ccc(Cl)cc2)=C(CN2CCN(c3ccc(C(=O)NS(=O)(=O)c4ccc(NC[C@H]5COCCO5)c([N+](=O)[O-])c4)c(N4CCCOc5nc6[nH]ccc6cc54)c3)CC2)C1 [Example 73, 4-(4-[[2-(4-chlorophenyl)-5,5-dimethylcyclohex-1-en-1-yl]methyl]piperazin-1-yl)-N-(4-[[(2S)-1,4-dioxan-2-ylmethyl]amino]-3-nitrobenzenesulfonyl)-2-[14-oxa-2,4,10-triazatricyclo[7.5.0.0^[3,7]]tetradeca-1(9),2,5,7-tetraen-10-yl]benzamide] | 0.0009 | 0.0031
 | CC1(C)CCC(CN2CCN(c3ccc(C(=O)NS(=O)(=O)c4ccc(NC[C@H]5COCCO5)c([N+](=O)[O-])c4)c(N4CCCOc5nc(N)ccc54)c3)CC2)=C(c2ccc(Cl)cc2)C1 [Example 39, 2-[7-amino-2H,3H,4H-pyrido[2,3-b][1,4]oxazepin-1-yl]-4-(4-[[2-(4-chlorophenyl)-4,4-dimethylcyclohex-1-en-1-yl]methyl]piperazin-1-yl)-N-(4-[[(2S)-1,4-dioxan-2-ylmethyl]amino]-3-nitrobenzenesulfonyl)benzamide] | 0.0015 | 0.544
 | CC1(C)CCC(CN2CCN(c3ccc(C(=O)NS(=O)(=O)c4ccc(NCC5CCOCC5)c([N+](=O)[O-])c4)c(N4CCC(c5ccccn5)Oc5nc6[nH]ccc6cc54)c3)CC2)=C(c2ccc(Cl)cc2)C1 (stereo not drawn) [Example 40, 4-(4-[[2-(4-chlorophenyl)-4,4-dimethylcyclohex-1-en-1-yl]methyl]piperazin-1-yl)-N-[3-nitro-4-[(oxan-4-ylmethyl)amino]benzenesulfonyl]-2-[13-(pyridin-2-yl)-14-oxa-2,4,10-triazatricyclo[7.5.0.0^[3,7]]tetradeca-1(9),2,5,7-tetraen-10-yl]benzamide hydrochloride] |  | 0.0056
 | CC1(C)CCC(CN2CCN(c3ccc(C(=O)NS(=O)(=O)c4ccc(NCC5CCOCC5)c([N+](=O)[O-])c4)c(N4CCOc5ccccc54)c3)CC2)=C(c2ccc(Cl)cc2)C1 [Example 33, 4-(4-[[2-(4-chlorophenyl)-4,4-dimethylcyclohex-1-en-1-yl]methyl]piperazin-1-yl)-2-(3,4-dihydro-2H-1,4-benzoxazin-4-yl)-N-(3-nitro-4-[[(oxan-4-yl)methyl]amino]benzenesulfonyl)benzamide] | 0.0426 | 
 | CC1(C)CCC(CN2CCN(c3ccc(C(=O)NS(=O)(=O)c4ccc(NCC5CCOCC5)c([N+](=O)[O-])c4)c(N4CC(F)(F)COc5nc6[nH]ccc6cc54)c3)CC2)=C(c2ccc(Cl)cc2)C1 [Example 36, 4-(4-[[2-(4-chlorophenyl)-4,4-dimethylcyclohex-1-en-1-yl]methyl]piperazin-1-yl)-2-[12,12-difluoro-14-oxa-2,4,10-triazatricyclo[7.5.0.0^[3,7]]tetradeca-1(9),2,5,7-tetraen-10-yl]-N-(3-nitro-4-[[(oxan-4-yl)methyl]amino]benzenesulfonyl)benzamide] |  | 0.00095
 | CC1(C)CCC(CN2CCN(c3ccc(C(=O)NS(=O)(=O)c4ccc(NCC5CCOCC5)c([N+](=O)[O-])c4)c(N4CCOc5ccncc54)c3)CC2)=C(c2ccc(Cl)cc2)C1 [Example 34, 4-(4-[[2-(4-chlorophenyl)-4,4-dimethylcyclohex-1-en-1-yl]methyl]piperazin-1-yl)-N-[3-nitro-4-[(oxan-4-ylmethyl)amino]benzenesulfonyl]-2-[2H,3H-pyrido[4,3-b][1,4]oxazin-4-yl]benzamide] | 0.122 | 
 | CC1(C)CCC(CN2CCN(c3ccc(C(=O)NS(=O)(=O)c4ccc(NCC5CCOCC5)c([N+](=O)[O-])c4)c(N4CCCOc5ncccc54)c3)CC2)=C(c2ccc(Cl)cc2)C1 [Example 35, 4-(4-[[2-(4-chlorophenyl)-4,4-dimethylcyclohex-1-en-1-yl]methyl]piperazin-1-yl)-N-[3-nitro-4-[(oxan-4-ylmethyl)amino]benzenesulfonyl]-2-[2H,3H,4H-pyrido[2,3-b][1,4]oxazepin-1-yl]benzamide] | 0.027 | 
 | CC1(C)CCC(CN2CCN(c3ccc(C(=O)NS(=O)(=O)c4ccc(NC[C@H]5COCCO5)c([N+](=O)[O-])c4)c(N4C(=O)COc5nc6[nH]ccc6cc54)c3)CC2)=C(c2ccc(Cl)cc2)C1 [Example 76, 4-(4-[[2-(4-chlorophenyl)-4,4-dimethylcyclohex-1-en-1-yl]methyl]piperazin-1-yl)-N-(4-[[(2S)-1,4-dioxan-2-ylmethyl]amino]-3-nitrobenzenesulfonyl)-2-[11-oxo-13-oxa-2,4,10-triazatricyclo[7.4.0.0[3,7]]trideca-1(9),2,5,7-tetraen-10-yl]benzamide] |  | 0.054
